Test results taken from article PMC7832401, “Antimycobacterial, Cytotoxic, and Antioxidant Activities of Abietane Diterpenoids Isolated from Plectranthus madagascariensis” (Plants, 2021).
Where “and” joins values, the source holds several entries; their conditions need not be identical. Identical values can stand only once. Like-named read-outs stand apart in the source and are kept apart here.

Columns and labels:
[1] = tested on: Mtb H37Rv pMSp12::GFP bioreporter strain; experiment: microbe, parasite or virus in culture; type: cell-based, Mycobacterium tuberculosis; settings: for MIC90: Mycobacterium tuberculosis, H37RV; for ADC MIC increase: may be due to serum binding
[2] = TEAC (Trolox Equivalent Absorbance Capacity) assay; settings: for TEAC: μM Trolox equivalents per gram, mean ± SD
Procedure: The TEAC assay was done according to the method developed by Pellegrini et al., which consists of determining the activities of the isolated compounds in terms of μM Trolox equivalents per gram dry weight (μM TE/g) of the test samples. Trolox was used as the standard with concentrations ranging from 0–500 μM. The absorbance was recorded by a Multiskan spectrometer plate reader at wavelength 734 nm. The antioxidant epigallocatechin gallate (EGCG) was used as a positive control.

[3] = FRAP (Ferric Ion Reducing Antioxidant Power) assay; settings: for FRAP: μM ascorbic acid equivalents per gram, mean ± SD
Procedure: The FRAP assay was conducted according to Benzie and Strain’s method, which consists of finding the compounds’ antioxidant potential in terms of μM ascorbic acid equivalents per gram dry weight (μM AAE/g). L-Ascorbic acid was used as a standard in the FRAP assay with concentrations varying between 0 and 1000 μM. The antioxidant potential of the tested samples was read at a wavelength of 593 nm in a Multiskan (Thermo Fisher Scientific, Waltham, MA, USA) spectrum plate reader.

[4] = ORAC (Oxygen Radical Absorbance Capacity) assay; settings: for ORAC: μM Trolox equivalents per gram, mean ± SD
Procedure: The ORAC assay was conducted according to Prior et al.’s method, which is a modified version of the original ORAC assay developed by Cao and Prior [26]. In this assay, 2,2′-azobis(2-amidinopropane) dihydrochloride (AAPH) underwent thermal decomposition to generate peroxyl radicals, resulting in a reduction in fluorescence from fluorescein. The antioxidant potential of the isolated compounds was measured by their ability to prevent any loss in fluorescence from fluorescein by neutralizing peroxyl radicals and assessing the sample’s fluorescence area under the curve (AUC). The fluoroskan spectrum plate reader was programmed to record fluorescein’s fluorescence every 2 min after the addition of AAPH with the excitation wavelength at 485 nm and the emission wavelength at 530 nm. The Trolox (TE) stock solution was used as standard with concentration varying between 0 and 417 μM. The ORAC values were calculated using a regression equation (y = mx + c) between Trolox concentration (y in μM) and the net area under the fluorescence decay curve (x). ORAC values were expressed as μM Trolox equivalents (TE) per gram of test samples (μM TE/g). The antioxidant epigallocatechin gallate (EGCG) was used as a positive control.

[5] = In vitro cytotoxicity MTT assay; settings: human
HaCaT cells = experiment: In vitro cytotoxicity MTT assay; settings: HaCaT cells
in vitro = settings: human
[6] = 168 h, […], 7 days, 90% inhibition, read-out: MIC90, 7H9/ADC/Glu/Tw, 7 Days
[7] = 168 h, […], 7 days, 90% inhibition, read-out: MIC90, 7H9/CAS/ Glu/Tx, 7 Days
[8] = 168 h, […], 7 days, value in brackets, read-out: MIC90, 7H9/CAS/ Glu/Tx, 7 Days
[9] = 168 h, supplement, […], day 7, read-out: GFP Assay - 10pt DR: MIC90 [Media: 7H9 ADC GLU Tw, Day:7]
[10] = 168 h, supplement, […], day 7, read-out: GFP Assay - 10pt DR: MIC90 [Media: 7H9 CAS GLU Tx, Day:7]
[11] = 336 h, […], 14 days, 90% inhibition, read-out: MIC90, 7H9/ADC/Glu/Tw, 14 Days
[12] = 336 h, […], 14 days, 90% inhibition, read-out: MIC90, 7H9/CAS/ Glu/Tx, 14 Days
[13] = 336 h, […], 14 days, value in brackets, read-out: MIC90, 7H9/CAS/ Glu/Tx, 14 Days
[14] = 336 h, supplement, […], day 14, read-out: GFP Assay - 10pt DR: MIC90 [Media: 7H9 ADC GLU Tw, Day:14]
[15] = 336 h, supplement, […], day 14, read-out: GFP Assay - 10pt DR: MIC90 [Media: 7H9 CAS GLU Tx, Day:14]
[16] = span over compounds, medium and day not stated (abstract), read-out: MIC90 against Mycobacterium tuberculosis H37Rv
[17] = 168 h, […], 7 days, value in brackets, read-out: MIC90, 7H9/ADC/Glu/Tw, 7 Days
[18] = 336 h, […], 14 days, value in brackets, read-out: MIC90, 7H9/ADC/Glu/Tw, 14 Days

Structure (SMILES) | MIC90 [1, 6] | MIC90 [1, 7] | MIC90 [1, 8] | MIC90 [1, 9] | MIC90 [1, 10] | MIC90 [1, 11] | MIC90 [1, 12] | MIC90 [1, 13] | MIC90 [1, 14] | MIC90 [1, 15] | MIC90 [1, 16] | antioxidant activity in TEAC assay (in words) [2] | TEAC [2] | antioxidant activity in FRAP assay (in words) [3] | FRAP [3] | antioxidant activity in ORAC assay (in words) [4] | ORAC [4] | IC50 at 24 h [5] | also measured
CC(C)C1=C(O)C(=O)C2=C(C1=O)[C@H](O)[C@@H](O)C1C(C)(C)CCC[C@]21C (stereo partly drawn) [Compound 1, 6β,7α-dihydroxyroyleanone] | > 125 µg/mL | 62.5 µg/mL | 180 µM | > 125 µg/mL | 62.5 µg/mL | > 125 µg/mL | 60.6 µg/mL | 174 µM | > 125 µg/mL | 60.6 µg/mL | 5.61 to 180 µM | good antioxidant activities | 5080.8 ± 0.04 µM TE/g | very little activity | 541.5 ± 1.59 µM AAE/g | good antioxidant activities | 23,625.0 ± 1.64 µM TE/g | 60.2 µg/mL and 173 µM | –
CC(=O)OC1C2=C(C(=O)C(O)=C(C(C)C)C2=O)C2(C)CCCC(C)(C)C2C1O (stereo not drawn) [Compound 2, 7α-acetoxy-6β-hydroxyroyleanone] | 14.4 µg/mL | 15.2 µg/mL | 39 µM | 15 µg/mL | 15.2 µg/mL | 14.6 µg/mL | 15.6 µg/mL | 40.1 µM | 33.6 µg/mL | 15.6 µg/mL | 5.61 to 180 µM | weak antioxidant activities | 3700.8 ± 1.50 µM TE/g | weak antioxidant activities | 345.5 ± 0.77 µM AAE/g | good activity | 21,404.1 ± 4.35 µM TE/g | 42.7 µg/mL and 109 µM | antimycobacterial activity (in words) [1]: moderate activities; MIC90 [1, 17]: 36.8 µM; MIC90 [1, 18]: 37.5 µM
CC(C)C1=C(O)C(=O)C2=C(C1=O)[C@H](O)C[C@H]1C(C)(C)CCC[C@]21C [Compound 3, horminone] | > 125 µg/mL | 14.3 µg/mL | 43.2 µM | > 125 µg/mL | 14.3 µg/mL | > 125 µg/mL | 3.96 µg/mL | 11.9 µM | > 125 µg/mL | 3.96 µg/mL | 5.61 to 180 µM | – | Inactive | – | 296.5 ± 6.72 µM AAE/g | – | 12,443.3 ± 3.61 µM TE/g | 53.7 µg/mL and 162 µM | ADC MIC increase ([1]; […]): ADC MIC is increased > 4 fold which may be due to serum binding
CC(C)C1=C(O)C(=O)C2=C(C(=O)C(O)=C3C(C)(C)CCC[C@]23C)C1=O [Compound 4, coleon U quinone] | > 125 µg/mL | 15.6 µg/mL | 45.4 µM | > 125 µg/mL | 15.6 µg/mL | > 125 µg/mL | 1.93 µg/mL | 5.61 µM | > 125 µg/mL | 1.94 µg/mL | 5.61 to 180 µM | weak antioxidant activities | 225.5 ± 1.47 µM TE/g | weak antioxidant activities | 2109.6 ± 2.78 µM AAE/g | good activity | 21,857.8 ± 5.85 µM TE/g | 33.9 µg/mL and 98.5 µM | ADC MIC increase ([1]; […]): ADC MIC is increased > 4 fold which may be due to serum binding; cytotoxic activity against HaCaT cells (in words) (HaCaT cells): good cytotoxic activities
CC(C)c1cc2c(c(O)c1O)[C@@]13CCCC(C)(C)[C@@H]1[C@](O)(OC3)C2=O [Compound 5, carnosolon] | > 125 µg/mL | > 125 µg/mL | – | > 125 µg/mL | > 125 µg/mL | > 125 µg/mL | > 125 µg/mL | – | > 125 µg/mL | > 125 µg/mL | – | – | 4876.3 ± 0.49 µM TE/g | – | 13,772.2 ± 2.76 µM AAE/g | – | 29,287.4 ± 4.75 µM TE/g | 27.5 µg/mL and 79.8 µM | MIC90 ([1]; in both media, read-out: MIC90 against Mtb H37Rv): > 125 µg/mL; cytotoxic activity against HaCaT cells (in words) (HaCaT cells): good cytotoxic activities
O=C(O[C@@H]1Cc2c(O)cc(O)cc2O[C@@H]1c1cc(O)c(O)c(O)c1)c1cc(O)c(O)c(O)c1 [EGCG, epigallocatechin gallate, reference compound] | – | – | – | – | – | – | – | – | – | – | – | – | 4722.5 ± 2.22 µM TE/g | – | 10,455.1 ± 0.81 µM AAE/g | – | 14,970.0 ± 5.53 µM TE/g | – | –
CO[C@H]1/C=C/O[C@@]2(C)Oc3c(C)c(O)c4c(O)c(c(/C=N/N5CCN(C)CC5)c(O)c4c3C2=O)NC(=O)/C(C)=C\C=C\[C@H](C)[C@H](O)[C@@H](C)[C@@H](O)[C@@H](C)[C@H](OC(C)=O)[C@@H]1C [Rifampicin, reference compound] | 0.001 µg/mL | 0.015 µg/mL | 0.02 µM | 0.001 µg/mL | 0.013 µg/mL | 0.002 µg/mL | 0.035 µg/mL | 0.04 µM | 0.0011 µg/mL | 0.018 µg/mL | – | – | – | – | – | – | – | – | MIC90 [1, 17]: 0.001 µM; MIC90 [1, 18]: 0.002 µM; GFP Assay - 10pt DR: MIC90 [Media: 7H9 ADC GLU Tw, Day:7] ([1]; supplement, […], day 7): 0.002 µg/mL; GFP Assay - 10pt DR: MIC90 [Media: 7H9 CAS GLU Tx, Day:7] ([1]; supplement, […], day 7): 0.015 µg/mL; GFP Assay - 10pt DR: MIC90 [Media: 7H9 ADC GLU Tw, Day:14] ([1]; supplement, […], day 14): 0.001 µg/mL; GFP Assay - 10pt DR: MIC90 [Media: 7H9 CAS GLU Tx, Day:14] ([1]; supplement, […], day 14): 0.035 µg/mL
CC/C(=C(\c1ccccc1)c1ccc(OCCN(C)C)cc1)c1ccccc1 [tamoxifen] | – | – | – | – | – | – | – | – | – | – | – | – | – | – | – | – | – | – | IC50 at 24 h (in vitro): 22 µg/mL and 59.3 µM
